Results on 21 compounds are retold here after patent US10479795B2 (Incyte Corporation, priority 2016, dated 2019).

Where a name gives a salt, the structure may show the parent alone. Read-outs that look alike come from different tables or passages of the source. Where only a bound is given, the exact number is not on record here.

Assay [1] concerns the target PI3Kγ (p110γ) Recombinant Human Protein (Homo sapiens (Human), UniProt P48736). Kind of assay: PI3K-γ Scintillation Proximity Assay. The following applies: read-out: PI3Kγ IC50. In kind it is biochemical. Summed up: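 Recombinant human p110γ assayed at room temperature in 20 mM MOPS pH 6.7, 10 mM MgCl2, 5 mM DTT, 0.03% CHAPS, 2% DMSO, with 20 μM PIP2 and 2 μM ATP plus [γ-33P]ATP. Product captured on WGA SPA beads overnight and counted; IC50 fitted from % of solvent-control activity versus log inhibitor concentration.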

In assay [2] the target is PI3Kδ (p110δ/p85α) Recombinant Human Protein (Homo sapiens (Human), UniProt O00329). Kind of assay: PI3Kδ Scintillation Proximity Assay. In kind it is biochemical. Summed up:
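Recombinant human p110δ/p85α (3.4 nM) phosphorylates 20 μM di-octanoyl PIP2 using 2 μM ATP spiked with [γ-33P]ATP, 120 min, room temperature, pH 6.7, 2% DMSO. Product measured by scintillation proximity; IC50 from dose-response fit.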

Assay [3] deals with Phosphorylated Ribosomal Protein S6 (RPS6). The assay is described as follows: THP-1 RPS6 ELISA Assay. In kind it is cell-based, Human. As to conditions: THP-1 cells, read-out: PI3Kγ_THP1_RPS6_ELISA IC50. Summed up:
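Serum-starved THP-1 cells were preincubated with a concentration range of compound for 2 h at 37 °C, then stimulated with 10 nM MCP-1 for 15 min. Phospho-RPS6 in lysates was quantified by ELISA at 450 nm. IC50 came from percent inhibition versus log inhibitor concentration.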
In general terms: An ELISA detects its analyte on a solid surface through an enzyme-linked reagent.

As a reminder, the IC50 is the concentration that gives 50% inhibition.

Sequence of PI3Kδ (p110δ/p85α) Recombinant Human Protein (O00329 whole entry): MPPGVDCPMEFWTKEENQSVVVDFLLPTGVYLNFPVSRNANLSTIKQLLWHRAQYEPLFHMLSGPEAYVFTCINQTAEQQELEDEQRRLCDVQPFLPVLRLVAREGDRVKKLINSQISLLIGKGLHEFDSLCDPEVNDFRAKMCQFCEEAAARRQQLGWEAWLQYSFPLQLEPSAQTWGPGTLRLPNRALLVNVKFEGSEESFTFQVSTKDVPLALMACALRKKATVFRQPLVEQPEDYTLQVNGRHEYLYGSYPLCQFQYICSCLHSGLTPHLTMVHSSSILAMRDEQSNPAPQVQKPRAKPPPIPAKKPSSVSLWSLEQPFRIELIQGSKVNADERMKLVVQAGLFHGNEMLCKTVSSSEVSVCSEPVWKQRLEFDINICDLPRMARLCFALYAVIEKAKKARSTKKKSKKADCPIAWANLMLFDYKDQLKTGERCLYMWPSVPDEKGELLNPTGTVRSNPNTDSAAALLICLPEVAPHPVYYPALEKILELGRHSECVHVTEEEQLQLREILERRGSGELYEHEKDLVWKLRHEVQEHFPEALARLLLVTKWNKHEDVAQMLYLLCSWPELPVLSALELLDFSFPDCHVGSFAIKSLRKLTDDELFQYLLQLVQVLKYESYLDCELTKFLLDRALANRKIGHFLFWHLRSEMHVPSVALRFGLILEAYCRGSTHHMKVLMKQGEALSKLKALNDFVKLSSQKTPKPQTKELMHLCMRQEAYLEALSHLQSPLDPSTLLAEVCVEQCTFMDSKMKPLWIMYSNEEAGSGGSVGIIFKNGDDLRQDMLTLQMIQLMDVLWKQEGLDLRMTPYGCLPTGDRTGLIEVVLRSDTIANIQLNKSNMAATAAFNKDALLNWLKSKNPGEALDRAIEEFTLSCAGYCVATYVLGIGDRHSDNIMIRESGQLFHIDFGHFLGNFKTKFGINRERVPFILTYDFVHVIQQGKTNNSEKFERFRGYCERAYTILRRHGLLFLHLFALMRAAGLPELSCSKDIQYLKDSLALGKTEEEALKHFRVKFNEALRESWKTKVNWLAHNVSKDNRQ
Sequence of PI3Kδ (p110δ/p85α) Recombinant Human Protein (P27986 whole entry partner): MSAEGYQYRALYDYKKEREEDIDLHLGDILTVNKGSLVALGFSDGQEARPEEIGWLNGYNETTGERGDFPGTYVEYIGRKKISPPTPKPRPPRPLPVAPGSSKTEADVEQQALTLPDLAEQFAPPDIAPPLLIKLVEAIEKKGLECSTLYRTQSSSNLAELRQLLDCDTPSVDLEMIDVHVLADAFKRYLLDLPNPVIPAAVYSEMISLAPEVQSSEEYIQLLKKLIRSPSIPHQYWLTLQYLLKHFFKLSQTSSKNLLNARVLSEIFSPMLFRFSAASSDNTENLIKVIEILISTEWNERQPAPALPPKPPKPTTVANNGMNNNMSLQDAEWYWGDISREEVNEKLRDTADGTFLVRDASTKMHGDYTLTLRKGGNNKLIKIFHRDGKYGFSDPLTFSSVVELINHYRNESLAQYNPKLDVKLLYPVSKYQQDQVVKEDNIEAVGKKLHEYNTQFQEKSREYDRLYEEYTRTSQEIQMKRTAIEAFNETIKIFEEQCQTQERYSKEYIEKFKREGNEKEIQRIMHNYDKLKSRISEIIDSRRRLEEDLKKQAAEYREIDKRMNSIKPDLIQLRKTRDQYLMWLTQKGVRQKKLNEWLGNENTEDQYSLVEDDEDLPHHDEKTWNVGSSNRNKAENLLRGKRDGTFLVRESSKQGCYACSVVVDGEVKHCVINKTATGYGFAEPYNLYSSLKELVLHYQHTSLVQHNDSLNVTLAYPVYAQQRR
Sequence of PI3Kγ (p110γ) Recombinant Human Protein (P48736 whole entry): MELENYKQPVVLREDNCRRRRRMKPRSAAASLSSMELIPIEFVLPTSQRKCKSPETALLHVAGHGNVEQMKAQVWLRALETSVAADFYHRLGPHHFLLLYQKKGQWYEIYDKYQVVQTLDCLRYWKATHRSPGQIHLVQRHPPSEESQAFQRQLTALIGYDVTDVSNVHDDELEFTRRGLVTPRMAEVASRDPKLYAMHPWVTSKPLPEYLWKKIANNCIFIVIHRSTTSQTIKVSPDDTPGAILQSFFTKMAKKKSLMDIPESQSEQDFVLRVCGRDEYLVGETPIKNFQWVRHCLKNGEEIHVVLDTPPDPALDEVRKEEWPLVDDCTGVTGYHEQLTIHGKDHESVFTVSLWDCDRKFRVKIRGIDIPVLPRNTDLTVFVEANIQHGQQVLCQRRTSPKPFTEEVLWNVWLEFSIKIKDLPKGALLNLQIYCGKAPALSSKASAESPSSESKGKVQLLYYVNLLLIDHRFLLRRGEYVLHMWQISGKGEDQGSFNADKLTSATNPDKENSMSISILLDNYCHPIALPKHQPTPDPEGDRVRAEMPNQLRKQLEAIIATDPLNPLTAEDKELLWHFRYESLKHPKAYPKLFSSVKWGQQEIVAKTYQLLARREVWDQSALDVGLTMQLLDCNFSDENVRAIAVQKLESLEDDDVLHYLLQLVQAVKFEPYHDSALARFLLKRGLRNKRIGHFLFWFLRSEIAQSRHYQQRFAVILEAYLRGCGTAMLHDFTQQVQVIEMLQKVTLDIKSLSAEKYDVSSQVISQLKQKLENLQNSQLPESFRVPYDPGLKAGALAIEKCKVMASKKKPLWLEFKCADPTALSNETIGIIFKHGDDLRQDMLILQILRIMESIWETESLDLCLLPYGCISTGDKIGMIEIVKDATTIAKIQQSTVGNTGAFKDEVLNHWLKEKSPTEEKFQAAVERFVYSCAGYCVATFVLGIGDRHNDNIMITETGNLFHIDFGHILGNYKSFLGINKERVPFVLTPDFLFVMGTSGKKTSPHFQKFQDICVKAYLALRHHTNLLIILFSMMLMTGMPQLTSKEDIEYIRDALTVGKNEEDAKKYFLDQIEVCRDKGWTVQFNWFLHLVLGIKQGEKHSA

In the case of `Cc1ccc(S(=O)(=O)NC23CC(Cn4cncn4)(C2)C3)cc1-c1cnc2c(N)nc(C(F)(F)F)cn12` [Example 280, N-(3-((1H-1,2,4-triazol-1-yl)methyl)bicyclo[1.1.1]pentan-1-yl)-3-(8-amino-6-(trifluoromethyl)imidazo[1,2-a]pyrazin-3-yl)-4-methylbenzenesulfonamide], the 50% inhibitory concentration (IC50) in assay [1] was less than 0.1 µM; in assay [2], 0.1 to 0.5 µM; in assay [3] (Homo sapiens), 0.1 to 0.5 µM.
Regarding `Cc1ccc(S(=O)(=O)N[C@H]2CC[C@H](O)CC2)cc1-c1cnc2c(N)nc(-c3cnn(C)c3)cn12` [Example 29, 3-[8-Amino-6-(1-methyl-1H-pyrazol-4-yl)imidazo[1,2-a]pyrazin-3-yl]-N-(trans-4-hydroxycyclohexyl)-4-methylbenzenesulfonamide], the figures for the IC50 in assay [1], in assay [2] and in assay [3] (Homo sapiens) were less than 0.1 µM, 0.1 to 0.5 µM and greater than 1 µM, respectively.
The corresponding values for `Cc1ccc(S(=O)(=O)NC23CCC(CN4CCOCC4)(CC2)OC3)cc1-c1cnc2c(N)ncnn12` [Example 434, 3-(4-Aminoimidazo[1,2-f][1,2,4]triazin-7-yl)-4-methyl-N-(1-(morpholinomethyl)-2-oxabicyclo[2.2.2]octan-4-yl)benzenesulfonamide trifluoroacetate salt] are less than 0.1 µM, 0.1 to 0.5 µM and 0.1 to 0.5 µM.
For `Cc1ccc(S(=O)(=O)NCCCO)cc1-c1cnc2c(N)nccn12` [Example 50, 3-(8-Aminoimidazo[1,2-a]pyrazin-3-yl)-N-(3-hydroxypropyl)-4-methylbenzenesulfonamide] the same measures were less than 0.1 µM, 0.5 to 2 µM and greater than 1 µM.
The corresponding values for `Cc1ccc(S(=O)(=O)N2C[C@H](N)C[C@H](C(F)(F)F)C2)cc1-c1cnc2c(N)nc(C(F)(F)F)cn12` [Example 307, 3-(5-(((3R,5S)-3-amino-5-(trifluoromethyl)piperidin-1-yl)sulfonyl)-2-methylphenyl)-6-(trifluoromethyl)imidazo[1,2-a]pyrazin-8-amine] are less than 0.1 µM, less than 0.1 µM and 0.1 to 0.5 µM.
As to `Cc1ccc(S(=O)(=O)N[C@H]2C[C@](O)(C(F)(F)F)C2)cc1-c1cnc2c(N)ncnn12` [Example 140, 3-(4-aminoimidazo[2,1-f][1,2,4]triazin-7-yl)-N-((1S,3S)-3-hydroxy-3-(trifluoromethyl)cyclobutyl)-4-methylbenzenesulfonamide], the figures for the IC50 in assay [1], in assay [2] and in assay [3] were less than 0.1 µM, 0.5 to 2 µM and 0.1 to 0.5 µM, respectively.
The corresponding values for `Cc1ccc(S(=O)(=O)NC23CC(F)(C2)C3)cc1-c1cnc2c(N)nc(C(F)(F)F)nn12` [Example 333, 3-(4-Amino-2-(trifluoromethyl)imidazo[1,2-f][1,2,4]triazin-7-yl)-N-(3-fluorobicyclo[1.1.1]pentan-1-yl)-4-methylbenzenesulfonamide trifluoroacetate salt] are less than 0.1 µM, 0.1 to 0.5 µM and less than 0.1 µM.
For `CC(=O)N1CC(NS(=O)(=O)c2ccc(C)c(-c3cnc4c(N)ncnn34)c2)C1` [Example 103, N-(1-Acetylazetidin-3-yl)-3-(4-aminoimidazo[1,2-f][1,2,4]triazin-7-yl)-4-methylbenzenesulfonamide trifluoroacetate salt] the same measures were less than 0.1 µM, 0.5 to 2 µM and greater than 1 µM.
For `Cc1ccc(S(=O)(=O)NC23CC(C#N)(C2)C3)cc1-c1cnc2c(N)nc(C(F)(F)F)nn12` [Example 330, 3-(4-Amino-2-(trifluoromethyl)imidazo[1,2-f][1,2,4]triazin-7-yl)-N-(3-cyanobicyclo[1.1.1]pentan-1-yl)-4-methylbenzenesulfonamide trifluoroacetate salt] the same measures were less than 0.1 µM, less than 0.1 µM and less than 0.1 µM.
`Cc1ncc(S(=O)(=O)NC23CCC(C#N)(C2)C3)cc1-c1cnc2c(N)nc(C(F)(F)F)cn12` [Example 257, 5-(8-amino-6-(trifluoromethyl)imidazo[1,2-a]pyrazin-3-yl)-N-(4-cyanobicyclo[2.1.1]hexan-1-yl)-6-methylpyridine-3-sulfonamide]: the IC50 in assay [1] was less than 0.1 µM; in assay [2], 0.5 to 2 µM; in assay [3] (Homo sapiens), greater than 1 µM.
The corresponding values for `Cc1ccc(-c2cn3c(-c4cc(S(=O)(=O)N[C@H]5CC[C@H](O)CC5)ccc4C)cnc3c(N)n2)cc1` [Example 18, 3-[8-Amino-6-(4-methylphenyl)imidazo[1,2-a]pyrazin-3-yl]-N-(trans-4-hydroxycyclohexyl)-4-methylbenzenesulfonamide] are less than 0.1 µM, 0.1 to 0.5 µM and less than 0.1 µM.
The corresponding values for `CCOC(=O)C1CCCN(S(=O)(=O)c2ccc(C)c(-c3cnc4c(N)nc(C(F)(F)F)cn34)c2)C1` (stereo not drawn) [Example 509, Ethyl 1-((3-(8-amino-6-(trifluoromethyl)imidazo[1,2-a]pyrazin-3-yl)-4-methylphenyl)sulfonyl)piperidine-3-carboxylate] are less than 0.1 µM, 0.5 to 2 µM and greater than 1 µM.
For the compound `Cc1ccc(S(=O)(=O)NC23CCC(CC#N)(C2)C3)cc1-c1cnc2c(N)ncnn12` [Example 108, 3-(4-Aminoimidazo[1,2-f][1,2,4]triazin-7-yl)-N-(4-(cyanomethyl)bicyclo[2.1.1]hexan-1-yl)-4-methylbenzenesulfonamide trifluoroacetate salt], the IC50 is less than 0.1 µM in assay [1], 0.1 to 0.5 µM in assay [2] and 0.1 to 0.5 µM in assay [3].
Regarding `Cc1cn2c(-c3cc(S(=O)(=O)N[C@H]4CC[C@H](O)CC4)ccc3C)cnc2c(N)n1` [Example 37, 3-(8-Amino-6-methylimidazo[1,2-a]pyrazin-3-yl)-N-(trans-4-hydroxycyclohexyl)-4-methylbenzenesulfonamide], the IC50 is less than 0.1 µM in assay [1], less than 0.1 µM in assay [2] and 0.1 to 0.5 µM in assay [3] (Homo sapiens).
In the case of `COC(=O)C12CC(NS(=O)(=O)c3ccc(C)c(-c4cnc5c(N)ncnn45)c3)(C1)C2` [Example 88, Methyl 3-(3-(4-aminoimidazo[1,2-f][1,2,4]triazin-7-yl)-4-methylphenylsulfonamido)bicyclo[1.1.1]pentane-1-carboxylate trifluoroacetate salt], the IC50 in assay [1] is less than 0.1 µM; in assay [2], 0.1 to 0.5 µM; in assay [3], less than 0.1 µM.
Consider `Cc1ccc(S(C)(=O)=O)cc1-c1cnc2c(N)nc(-c3cccc(CC#N)c3)cn12` [Example 474, 2-(3-(8-Amino-3-(2-methyl-5-(methylsulfonyl)phenyl)imidazo[1,2-a]pyrazin-6-yl)phenyl)acetonitrile trifluoroacetate], for which the IC50 in assay [1] is less than 0.1 µM; in assay [2] it was 0.1 to 0.5 µM; in assay [3] (Homo sapiens) it was 0.1 to 0.5 µM.
For the compound `Nc1nc(C(F)(F)F)cn2c(-c3ccc(Cl)c(S(=O)(=O)NC45CCC(CO)(C4)C5)c3)cnc12` [Example 399, 5-(8-Amino-6-(trifluoromethyl)imidazo[1,2-a]pyrazin-3-yl)-2-chloro-N-(4-(hydroxymethyl)bicyclo[2.1.1]hexan-1-yl)benzenesulfonamide trifluoroacetate salt], the IC50 in assay [1] was less than 0.1 µM; in assay [2] it was less than 0.1 µM; in assay [3] (Homo sapiens) it was greater than 1 µM.
As for `Cc1ccc(S(=O)(=O)NCC2(O)CNC2)cc1-c1cnc2c(N)nc(C(F)(F)F)nn12` [Example 335, 3-(4-Amino-2-(trifluoromethyl)imidazo[1,2-f][1,2,4]triazin-7-yl)-N-((3-hydroxyazetidin-3-yl)methyl)-4-methylbenzenesulfonamide trifluoroacetate salt], the figures for the IC50 in assay [1], in assay [2] and in assay [3] were less than 0.1 µM, 0.1 to 0.5 µM and 0.1 to 0.5 µM, respectively.
As to `Cc1ccc(S(=O)(=O)NC23COC(CO)(C2)C3)cc1-c1cnc2c(N)nc(C(F)(F)F)nn12` [Example 427, 3-(4-Amino-2-(trifluoromethyl)imidazo[1,2-f][1,2,4]triazin-7-yl)-N-(1-(hydroxymethyl)-2-oxabicyclo[2.1.1]hexan-4-yl)-4-methylbenzenesulfonamide trifluoroacetate salt], the values for the IC50 in assay [1], in assay [2] and in assay [3] (Homo sapiens) were less than 0.1 µM, 0.1 to 0.5 µM and 0.1 to 0.5 µM, respectively.
`Cc1ccc(S(=O)(=O)N[C@H]2C[C@H](C#N)C2)cc1-c1cnc2c(N)ncnn12` [Example 89, 3-(4-Aminoimidazo[1,2-f][1,2,4]triazin-7-yl)-N-((1r,3r)-3-cyanocyclobutyl)-4-methylbenzenesulfonamide trifluoroacetate salt]: the IC50 is less than 0.1 µM in assay [1], 0.1 to 0.5 µM in assay [2] and less than 0.1 µM in assay [3].
For `Cc1ccc(S(=O)(=O)N[C@H]2C[C@H](O)C2)cc1-c1cnc2c(N)nccn12` [Example 54, 3-(8-Aminoimidazo[1,2-a]pyrazin-3-yl)-N-(trans-3-hydroxycyclobutyl)-4-methylbenzenesulfonamide], the IC50 in assay [1] was less than 0.1 µM; in assay [2], 0.1 to 0.5 µM; in assay [3] (Homo sapiens) it was greater than 1 µM.
